These are literature values, as cited in article PMC8542980, “The Scavenger Function of Liver Sinusoidal Endothelial Cells in Health and Disease” (Frontiers in Physiology, 2021).

Read-outs that look alike come from different tables or passages of the source.

Data set [1] concerns endocytic hyaluronan receptor.
On the set-up of data set [2]: method as in Fraser et al., 1984. Particulars: human, ref Fraser et al., 1984.
Details of data set [3]: method as in Fraser et al., 1981. Particulars: rabbit, ref Fraser et al., 1981.
Where [4] appears, read: rat, 1 μg, tail vein, ref Smedsrød and Einarsson, 1990.
Setting [5] is: ref Smedsrød et al., 1984, Laurent et al., 1986b.
Setting [6] is: rats, whole body autoradiography 10 min after injection, ref Fraser et al., 1985.

For the molecule `C[C@@H]1C[C@@H]([C@H](O)CC2CC(=O)NC(=O)C2)C(=O)[C@@H](C)C1` [cycloheximide], the “effect on the endocytosis of hyaluronan by cultured LSECs” value with LSECs (inhibitor of protein synthesis, ref McGary et al., 1989) is listed as “no effect”.
Take Dextran sulfate: in data set [1] (ref Raja et al., 1988, McGary et al., 1989), the “inhibition of the binding of hyaluronan by LSECs” value is listed as “can also inhibit”.
For “^125I-tPA: 125I-labeled tissue plasminogen activator”, under setting [4], the “% eliminated with t1/2α” value is on record as 65%; the “% eliminated with t1/2β” value is given as 35%; the “Decay of plasma/blood radioactivity, t1/2α” value is 0.6 min; the “Decay of plasma/blood radioactivity, t1/2β” value is listed as 6.4 min.
With chondroitin sulfate, in data set [1] (ref Smedsrød et al., 1984), the “inhibition of the uptake and binding of hyaluronan by LSECs” value is “can inhibit”. In addition, the “affinity of the rat receptor compared with hyaluronan of the same chain length” value in data set [1] (setting [5]) was “threefold greater affinity”.
In the case of “chondroitin sulfate [[^3H]-chondroitin sulfate (CS)]”, the “site of main uptake” value (rat, clearance rate not examined, ref Smedsrød et al., 1985b) was “Clearance rate not examined but the main uptake was in LSECs”.
Regarding heparan sulfate, in data set [1] (setting [5]), the “affinity of the rat receptor” value is “no affinity”.
On to heparin [listing 1 of 2 here], for which the “Decay of plasma/blood radioactivity, t1/2” value (rat, 0.1 IU/kg, tail vein, ref Øie et al., 2008) is given as 1.71 min. Also, the recovered in liver (rat, after 15 min, ref Øie et al., 2008) is 71%.
For the molecule heparin [listing 2 of 2 here], the “affinity of the rat receptor” value in data set [1] (setting [5]) is reported as “no affinity”.
In the case of hyaluronan, for the setting “rat, at 30 min after injection, ref Dahl et al., 1988”, the uptake in liver is 79%. The “Decay of plasma/blood radioactivity, t1/2α” value (rat, tail vein, MW = 2.5 × 10^5, ref Dahl et al., 1988) was 0.9 min.
Consider hyaluronan [[^3H]-hyaluronan], for which, in the data set on LSECs (LSEC cultures, 37°C, after addition of ligand, ref Smedsrød et al. (1984)), the “time to appearance of degradation products in the supernatant” value was at most 30 min. In the data set with LSECs (LSEC cultures, 37°C, into the incubation, ref Smedsrød et al. (1984)), the “time to steady state levels of internalized ligand and degradation products” value is 60 to 75 min. Also, the “Decay of plasma/blood radioactivity, t1/2” value in data set [2] (60–130 μg, cubital vein) was 2.6 to 5.5 min. Also, in data set [2] (after 10 min), the eliminated from blood is given as 90%. Also, under setting [6], the “injected radioactivity found in Kupffer cells” value is “none” and the “injected radioactivity found in the cytoplasm of LSECs” value is reported as “approximately 90%”. In addition, in data set [3] (30–32 μg, marginal ear vein), the “Decay of plasma/blood radioactivity, t1/2” value was 2.5 to 4.5 min. In addition, the uptake in liver in data set [3] (at 19 min after injection) was 88%.
In the case of “hyaluronan [hyaluronan of 6.4 × 10^6 Da]”, the Kd in data set [1] (endocytic hyaluronan receptor of LSECs, ref Laurent et al., 1986b, read-out: dissociation constant) is 9 pM.

B1: ^125I-TC-nidogen: nidogen labeled with 125I-tyramine cellobiose (protein, UniProt P14543 29-1247, looked up)
Nidogen-1: LSRQELFPFGPGQGDLELEDGDDFVSPALELSGALRFYDRSDIDAVYVTTNGIIATSEPPAKESHPGLFPPTFGAVAPFLADLDTTDGLGKVYYREDLSPSITQRAAECVHRGFPEISFQPSSAVVVTWESVAPYQGPSRDPDQKGKRNTFQAVLASSDSSSYAIFLYPEDGLQFHTTFSKKENNQVPAVVAFSQGSVGFLWKSNGAYNIFANDRESVENLAKSSNSGQQGVWVFEIGSPATTNGVVPADVILGTEDGAEYDDEDEDYDLATTRLGLEDVGTTPFSYKALRRGGADTYSVPSVLSPRRAATERPLGPPTERTRSFQLAVETFHQQHPQVIDVDEVEETGVVFSYNTDSRQTCANNRHQCSVHAECRDYATGFCCSCVAGYTGNGRQCVAEGSPQRVNGKVKGRIFVGSSQVPIVFENTDLHSYVVMNHGRSYTAISTIPETVGYSLLPLAPVGGIIGWMFAVEQDGFKNGFSITGGEFTRQAEVTFVGHPGNLVIKQRFSGIDEHGHLTIDTELEGRVPQIPFGSSVHIEPYTELYHYSTSVITSSSTREYTVTEPERDGASPSRIYTYQWRQTITFQECVHDDSRPALPSTQQLSVDSVFVLYNQEEKILRYALSNSIGPVREGSPDALQNPCYIGTHGCDTNAACRPGPRTQFTCECSIGFRGDGRTCYDIDECSEQPSVCGSHTICNNHPGTFRCECVEGYQFSDEGTCVAVVDQRPINYCETGLHNCDIPQRAQCIYTGGSSYTCSCLPGFSGDGQACQDVDECQPSRCHPDAFCYNTPGSFTCQCKPGYQGDGFRCVPGEVEKTRCQHEREHILGAAGATDPQRPIPPGLFVPECDAHGHYAPTQCHGSTGYCWCVDRDGREVEGTRTRPGMTPPCLSTVAPPIHQGPAVPTAVIPLPPGTHLLFAQTGKIERLPLEGNTMRKTEAKAFLHVPAKVIIGLAFDCVDKMVYWTDITEPSIGRASLHGGEPTTIIRQDLGSPEGIAVDHLGRNIFWTDSNLDRIEVAKLDGTQRRVLFETDLVNPRGIVTDSVRGNLYWTDWNRDNPKIETSYMDGTNRRILVQDDLGLPNGLTFDAFSSQLCWVDAGTNRAECLNPSQPSRRKALEGLQYPFAVTSYGKNLYFTDWKMNSVVALDLAISKETDAFQPHKQTRLYGITTALSQCPQGHNYCSVNNGGCTHLCLATPGSRTCRCPDNTLGVDCIEQK
modifications: 125I-tyramine cellobiose label
notes: nidogen labeled with 125I-tyramine cellobiose
For the molecule B1, the recovered in liver (rat, after 1 h, ref Smedsrød et al., 1989) is given as 78%. Moreover, for the setting “rat, trace amounts, tail vein, ref Smedsrød et al., 1989”, the “Decay of plasma/blood radioactivity, t1/2” value was 2 to 3 min.
